Source: patent publication US8153821B2, “Compounds” (priority 2008, dated 2012)

What was measured:
[1] = molecular target: T1, hERG (Homo sapiens, UniProt Q12809); assay: cell-based
T1 construct: expressed in transfected cells; host or cells: HEK-239 (so in the source)

[2] = molecular target: α4β2 (Homo sapiens, UniProt P17787+P43681); assay: In vitro assay at α4β2, response compared to acetylcholine
[3] = molecular target: T2, CYP1A2 (Homo sapiens, UniProt P05177); type: in vitro ADME
[4] = molecular target: T3, human native ganglion-type nicotinic receptors (likely α3β4) (Homo sapiens, UniProt P30926+P32297); assay: [3H]epibatidine binding, SH-SY5Y membranes
T3 construct: human native ganglion-type nicotinic receptors (likely α3β4); endogenous in cells; host or cells: SH-SY5Y
T3 sequence (P30926 22-498): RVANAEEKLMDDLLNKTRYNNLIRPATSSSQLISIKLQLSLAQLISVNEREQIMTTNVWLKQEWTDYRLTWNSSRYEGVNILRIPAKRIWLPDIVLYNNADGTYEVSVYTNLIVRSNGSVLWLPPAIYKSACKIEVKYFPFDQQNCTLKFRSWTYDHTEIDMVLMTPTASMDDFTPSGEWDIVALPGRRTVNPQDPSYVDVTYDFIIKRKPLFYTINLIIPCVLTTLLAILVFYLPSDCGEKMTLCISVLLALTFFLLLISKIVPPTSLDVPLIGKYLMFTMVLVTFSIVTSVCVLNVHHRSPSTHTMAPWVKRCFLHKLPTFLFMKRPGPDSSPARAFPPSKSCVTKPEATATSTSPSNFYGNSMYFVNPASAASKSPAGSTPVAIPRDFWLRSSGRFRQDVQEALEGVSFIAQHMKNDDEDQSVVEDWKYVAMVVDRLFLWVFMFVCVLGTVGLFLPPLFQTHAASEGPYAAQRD
T3 sequence (P32297 32-505): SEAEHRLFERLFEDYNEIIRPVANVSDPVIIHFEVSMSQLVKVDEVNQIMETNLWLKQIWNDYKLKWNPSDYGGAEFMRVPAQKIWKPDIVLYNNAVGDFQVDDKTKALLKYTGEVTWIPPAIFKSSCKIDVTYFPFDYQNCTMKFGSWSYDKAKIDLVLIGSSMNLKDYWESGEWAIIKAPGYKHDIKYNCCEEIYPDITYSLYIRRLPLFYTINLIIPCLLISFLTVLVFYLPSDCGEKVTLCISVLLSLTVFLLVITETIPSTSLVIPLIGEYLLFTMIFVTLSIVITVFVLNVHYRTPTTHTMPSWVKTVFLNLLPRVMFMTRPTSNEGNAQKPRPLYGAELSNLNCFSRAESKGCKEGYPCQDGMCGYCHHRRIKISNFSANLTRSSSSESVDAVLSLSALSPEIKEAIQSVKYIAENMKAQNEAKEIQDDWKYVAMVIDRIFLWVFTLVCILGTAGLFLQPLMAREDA

[5] = molecular target: T4, rat native α4β2 receptors (Rattus norvegicus, UniProt P09483+P12390); assay: Radioligand binding, rat native α4β2 in rat cortical membranes
T4 construct: rat native α4β2 receptors in rat cortical membranes; from tissue; host or cells: rat cerebral cortex (female Sprague-Dawley)
T4 sequence (P09483 31-630): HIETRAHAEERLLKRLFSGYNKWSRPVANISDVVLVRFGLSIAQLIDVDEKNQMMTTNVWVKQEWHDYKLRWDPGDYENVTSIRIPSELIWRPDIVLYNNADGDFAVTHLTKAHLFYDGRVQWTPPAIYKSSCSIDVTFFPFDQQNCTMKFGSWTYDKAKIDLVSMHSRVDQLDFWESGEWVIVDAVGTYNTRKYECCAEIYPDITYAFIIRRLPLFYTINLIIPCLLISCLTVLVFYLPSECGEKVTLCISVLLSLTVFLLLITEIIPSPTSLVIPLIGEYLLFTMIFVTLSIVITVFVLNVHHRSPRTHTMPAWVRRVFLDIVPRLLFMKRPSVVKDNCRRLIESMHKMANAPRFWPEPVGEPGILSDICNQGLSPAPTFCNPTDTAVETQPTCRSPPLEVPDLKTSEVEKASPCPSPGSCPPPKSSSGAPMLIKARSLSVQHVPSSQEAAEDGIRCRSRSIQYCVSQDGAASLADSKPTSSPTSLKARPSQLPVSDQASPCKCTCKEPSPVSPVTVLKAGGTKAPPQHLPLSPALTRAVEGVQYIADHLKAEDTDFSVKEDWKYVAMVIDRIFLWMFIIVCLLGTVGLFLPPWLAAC
T4 sequence (P12390 25-500): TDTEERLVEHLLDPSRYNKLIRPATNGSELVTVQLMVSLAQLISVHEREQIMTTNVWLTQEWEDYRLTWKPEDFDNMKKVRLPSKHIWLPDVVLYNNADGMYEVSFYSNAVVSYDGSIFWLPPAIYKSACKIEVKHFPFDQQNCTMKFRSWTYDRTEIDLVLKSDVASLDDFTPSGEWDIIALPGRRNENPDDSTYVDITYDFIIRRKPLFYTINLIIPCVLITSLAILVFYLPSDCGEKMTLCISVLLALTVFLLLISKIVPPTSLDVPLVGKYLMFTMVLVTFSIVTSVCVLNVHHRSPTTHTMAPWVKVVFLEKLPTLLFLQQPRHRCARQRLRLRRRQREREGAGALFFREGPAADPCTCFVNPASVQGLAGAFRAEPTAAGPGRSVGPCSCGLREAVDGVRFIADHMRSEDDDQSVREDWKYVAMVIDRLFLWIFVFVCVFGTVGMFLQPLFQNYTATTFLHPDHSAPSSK
Procedure: Preparation of membranes from rat cortex: Rats (female, Sprague-Dawley), weighing 150-250 g, were maintained on a 12 h light/dark cycle and were allowed free access to water and food supplied by PMI Nutrition International, Inc. Animals were anesthetized with 70% CO2, and then decapitated. Brains were removed and placed on an ice-cold platform. The cerebral cortex was removed and placed in 20 volumes (weight:volume) of ice-cold preparative buffer (137 mM NaCl, 10.7 mM KCl, 5.8 mM KH2PO4, 8 mM Na2HPO4, 20 mM HEPES (free acid), 5 mM iodoacetamide, 1.6 mM EDTA, pH 7.4); PMSF, dissolved in methanol to a final concentration of 100 μM, was added and the suspension was homogenized by Polytron. […]
Assay. […] Protein concentrations were determined using a Pierce BCA Protein Assay Kit, with bovine serum albumin as the standard (Pierce Chemical Company, Rockford, Ill.).
Incubation was terminated by rapid filtration on a multi-manifold tissue harvester (Brandel, Gaithersburg, Md.) using GF/B filters presoaked in 0.33% polyethyleneimine (w/v) to reduce non-specific binding. […] Filters were then counted to determine radioactivity bound to the membranes by liquid scintillation counting (2200CA Tri-Carb LSC, Packard Instruments, 50% efficiency or Wallac Trilux 1450 MicroBeta, 40% efficiency, Perkin Elmer).
Data were expressed as disintegrations per minute (DPMs). […]

[6] = molecular target: CYP2D6 (Homo sapiens, UniProt P10635); assay: biochemical; type: in vitro ADME
Procedure: (§1) Inhibition of CYP1A2, CYP2C9, CYP2C19, CYP2D6 and CYP3A4 catalytic activity by (R)-3-((E)-2-(pyrrolidin-3-yl)vinyl)-5-(tetrahydropyran-4-yloxy)pyridine or a slat thereof was assessed using a fluorogenic CYP assay. Probe substrates which fluoresce upon CYP catalyzed oxidation were used to evaluate the degree of inhibition of the test substrate. A single concentration of each probe substrate (at approximately the apparent Km value) and two different concentrations of (R)-3-((E)-2-(pyrrolidin-3-yl)vinyl)-5-(tetrahydropyran-4-yloxy)pyridine hemigalactarate (2 and 20 μM) were tested in duplicate. Fluorescence intensity at selected wavelengths was used as a measure of enzyme activity. Decreased fluorescence in the presence of (R)-3-((E)-2-(pyrrolidin-3-yl)vinyl)-5-(tetrahydropyran-4-yloxy)pyridine or a sat thereof was an indication of inhibition. […] Duplicate samples were run alongside the positive and negative controls. Incubation of test samples was performed at 37° C. Experimental parameters are outlined in Table 2.

[7] = molecular target: T2, CYP1A2; assay: biochemical; type: in vitro ADME
Procedure: as §1

[8] = molecular target: CYP3A4 (Homo sapiens, UniProt P08684); assay: biochemical; type: in vitro ADME
CYP3A4, sequence (P08684 whole entry): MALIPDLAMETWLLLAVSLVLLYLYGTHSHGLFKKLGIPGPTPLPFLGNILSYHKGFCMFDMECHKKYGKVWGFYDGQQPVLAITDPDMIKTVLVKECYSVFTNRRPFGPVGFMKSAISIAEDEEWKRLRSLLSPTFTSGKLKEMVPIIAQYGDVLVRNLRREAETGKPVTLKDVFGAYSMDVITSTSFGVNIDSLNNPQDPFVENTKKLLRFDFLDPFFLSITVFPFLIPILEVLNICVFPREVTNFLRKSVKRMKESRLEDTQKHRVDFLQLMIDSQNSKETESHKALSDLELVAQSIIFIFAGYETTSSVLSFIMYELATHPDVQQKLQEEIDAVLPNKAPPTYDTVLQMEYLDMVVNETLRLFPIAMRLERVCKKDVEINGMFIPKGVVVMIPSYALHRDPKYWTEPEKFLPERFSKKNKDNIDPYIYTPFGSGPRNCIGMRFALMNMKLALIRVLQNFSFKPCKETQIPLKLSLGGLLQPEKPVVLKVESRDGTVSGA
Procedure: as §1

[9] = molecular target: CYP2C9 (Homo sapiens, UniProt P11712); assay: biochemical; type: in vitro ADME
Procedure: as §1

[10] = molecular target: CYP2C19 (Homo sapiens, UniProt P33261); assay: biochemical; type: in vitro ADME
CYP2C19, sequence (P33261 whole entry): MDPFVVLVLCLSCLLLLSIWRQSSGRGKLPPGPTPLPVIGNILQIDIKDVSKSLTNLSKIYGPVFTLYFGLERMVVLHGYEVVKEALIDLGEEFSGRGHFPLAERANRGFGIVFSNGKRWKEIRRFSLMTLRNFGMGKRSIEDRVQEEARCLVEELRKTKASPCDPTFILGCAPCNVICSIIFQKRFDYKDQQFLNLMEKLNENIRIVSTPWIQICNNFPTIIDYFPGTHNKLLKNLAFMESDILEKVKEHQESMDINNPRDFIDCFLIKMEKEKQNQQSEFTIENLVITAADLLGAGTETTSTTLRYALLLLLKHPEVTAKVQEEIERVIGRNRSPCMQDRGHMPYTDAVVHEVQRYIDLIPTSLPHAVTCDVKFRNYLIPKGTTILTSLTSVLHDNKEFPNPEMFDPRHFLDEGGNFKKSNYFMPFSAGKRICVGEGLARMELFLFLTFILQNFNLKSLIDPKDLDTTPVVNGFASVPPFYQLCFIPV
Procedure: as §1

T2 sequence (P05177 whole entry): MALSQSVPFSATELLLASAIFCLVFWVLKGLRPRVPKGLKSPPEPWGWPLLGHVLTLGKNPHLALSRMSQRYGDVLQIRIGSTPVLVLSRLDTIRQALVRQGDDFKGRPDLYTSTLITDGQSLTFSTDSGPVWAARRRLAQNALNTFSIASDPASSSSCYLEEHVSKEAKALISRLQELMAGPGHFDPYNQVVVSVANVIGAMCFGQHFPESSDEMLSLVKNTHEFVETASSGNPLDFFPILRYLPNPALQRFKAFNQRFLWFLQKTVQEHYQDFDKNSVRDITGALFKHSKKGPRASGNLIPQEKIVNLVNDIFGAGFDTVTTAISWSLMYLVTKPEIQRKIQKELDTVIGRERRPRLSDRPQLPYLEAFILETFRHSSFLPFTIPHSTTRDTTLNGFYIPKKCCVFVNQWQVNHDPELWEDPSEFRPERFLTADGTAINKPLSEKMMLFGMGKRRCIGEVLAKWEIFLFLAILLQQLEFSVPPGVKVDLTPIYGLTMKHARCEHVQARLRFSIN
T1 sequence (Q12809 whole entry): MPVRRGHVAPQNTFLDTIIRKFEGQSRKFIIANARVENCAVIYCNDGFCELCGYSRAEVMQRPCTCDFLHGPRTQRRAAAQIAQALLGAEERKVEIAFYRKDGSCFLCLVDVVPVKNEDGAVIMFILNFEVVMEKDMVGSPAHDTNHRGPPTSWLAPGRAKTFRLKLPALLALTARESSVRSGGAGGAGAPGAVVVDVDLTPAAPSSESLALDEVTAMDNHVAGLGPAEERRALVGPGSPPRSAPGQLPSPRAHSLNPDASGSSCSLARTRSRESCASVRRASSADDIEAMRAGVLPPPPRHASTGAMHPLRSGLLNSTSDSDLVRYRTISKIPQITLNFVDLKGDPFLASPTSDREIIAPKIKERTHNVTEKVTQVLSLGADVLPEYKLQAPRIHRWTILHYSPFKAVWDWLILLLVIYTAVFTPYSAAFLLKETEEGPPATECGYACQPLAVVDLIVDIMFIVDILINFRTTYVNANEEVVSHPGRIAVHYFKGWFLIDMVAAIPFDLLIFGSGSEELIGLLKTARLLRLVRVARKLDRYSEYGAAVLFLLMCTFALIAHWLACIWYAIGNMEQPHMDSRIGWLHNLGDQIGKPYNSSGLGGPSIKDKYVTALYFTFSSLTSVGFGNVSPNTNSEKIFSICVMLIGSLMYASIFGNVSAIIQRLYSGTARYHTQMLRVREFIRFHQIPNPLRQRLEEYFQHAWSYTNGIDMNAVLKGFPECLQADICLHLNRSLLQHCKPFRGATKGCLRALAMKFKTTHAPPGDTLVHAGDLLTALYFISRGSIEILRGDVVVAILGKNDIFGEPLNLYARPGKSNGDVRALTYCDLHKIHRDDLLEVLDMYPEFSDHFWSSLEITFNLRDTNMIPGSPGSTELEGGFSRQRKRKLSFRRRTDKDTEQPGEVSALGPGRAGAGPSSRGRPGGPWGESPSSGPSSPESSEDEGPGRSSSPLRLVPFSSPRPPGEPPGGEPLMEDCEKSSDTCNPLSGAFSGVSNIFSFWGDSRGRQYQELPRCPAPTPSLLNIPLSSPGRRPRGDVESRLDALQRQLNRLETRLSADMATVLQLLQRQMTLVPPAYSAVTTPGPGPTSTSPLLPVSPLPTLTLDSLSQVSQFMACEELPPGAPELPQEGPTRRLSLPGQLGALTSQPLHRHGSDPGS

With C(=C\[C@H]1CCNC1)/c1cncc(OC2CCOCC2)c1 [Compound A, (R)-3-((E)-2-(pyrrolidin-3-yl)vinyl)-5-(tetrahydropyran-4-yloxy)pyridine] the IC50 [1] was 84 µM, the “response compared to acetylcholine” value [2] was “twice as great” and the “time-dependent inhibition of CYP1A2” value [3] was “no evidence of time-dependent inhibition”. It also gave a Ki [4] of 3.4 µM, a Ki [5] of 0.004 µM and an IC50 [6] of over 20 µM. For the same molecule, the IC50 [7] was over 20 µM, the IC50 [8] was over 20 µM and the IC50 [9] was over 20 µM. For the same molecule, the IC50 [10] was over 20 µM.
